In ChEMBL document CHEMBL3758164, “Identification of new SUMO activating enzyme 1 inhibitors using virtual screening and scaffold hopping” (Bioorg Med Chem Lett, 2016):
pIC50: −log10 of the molar value.

Tests used:
[1] = biological target: T1, SUMO-activating enzyme subunit 1 (Homo sapiens) (UniProt Q9UBE0); test: Inhibition of recombinant GST-fused SUMO E1 (unknown origin) using RanGAP1 as substrate at 20 uM after 2 hrs by immunoblot analysis; details: values are per cent of control
T1 sequence (whole entry): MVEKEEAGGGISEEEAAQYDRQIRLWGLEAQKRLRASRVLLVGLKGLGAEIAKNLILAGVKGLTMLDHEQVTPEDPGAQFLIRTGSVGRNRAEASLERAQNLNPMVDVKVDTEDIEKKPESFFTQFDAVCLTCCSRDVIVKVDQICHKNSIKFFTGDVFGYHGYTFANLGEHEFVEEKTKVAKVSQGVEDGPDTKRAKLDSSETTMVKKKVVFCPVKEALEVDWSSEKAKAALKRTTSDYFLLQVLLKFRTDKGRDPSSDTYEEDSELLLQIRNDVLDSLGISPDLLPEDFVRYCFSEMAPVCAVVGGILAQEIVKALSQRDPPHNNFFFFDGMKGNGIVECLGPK

[2] = biological target: T1, SUMO-activating enzyme subunit 1 (Homo sapiens); test: Inhibition of recombinant GST-fused SUMO E1 (unknown origin) using RanGAP1 as substrate at 100 uM after 2 hrs by immunoblot analysis; details: values are per cent of control
[3] = biological target: T2, SUMO-activating enzyme subunit 1 (Homo sapiens, UniProt Q9UBE0); test: (§1) Inhibition of recombinant GST-fused SUMO E1 (unknown origin) using RanGAP1 as substrate after 2 hrs by immunoblot analysis
T2 sequence (Q9UBE0 whole entry): T1 sequence (whole entry)

[4] = biological target: T1, SUMO-activating enzyme subunit 1 (Homo sapiens); test: as §1

| SMILES | residual activity [1] [%] | residual activity [2] [%] | pIC50 [3] | inhibition [4] |
| --- | --- | --- | --- | --- |
| Cn1nc(-c2ccccc2)cc1NC(=O)Nc1ccc(OCc2ccccc2)cc1 | 72 | 3 | – | – |
| COc1cc(C)ccc1NC(=O)Nc1cn(-c2ccccc2)nc1-c1ccc(OC)c(OC)c1 | 88.9 | 57.5 | – | – |
| COc1cc(NC(=O)Nc2nc(-c3ccc(Cl)s3)cs2)cc(OC)c1OC | 60.8 | 0.01 | – | – |
| Cc1ccc(-c2nc(NC(=O)Nc3ccccc3)sc2C)cc1Cl | 65.6 | 41.4 | – | – |
| O=C(Nc1cccc(Cl)c1)Nc1nc2c(ccc3ccccc32)s1 | 69.3 | 0.02 | – | – |
| CCc1cc(=O)[nH]c(-n2nc(-c3ccccc3)cc2NC(=O)Nc2ccc(C(C)(C)C)cc2)n1 | 55.2 | 1.88 | 4.86 | – |
| COc1cc(NC(=O)Nc2nc(-c3cc4ccccc4o3)cs2)cc(OC)c1OC | 76.8 | 45.3 | – | – |
| Cc1ccc(-c2nc(NC(=O)Nc3ccc(F)cc3)sc2C)cc1Cl | 93.9 | 94.8 | – | – |
| COc1ccccc1NC(=O)Nc1nc(-c2ccc(OC)c(OC)c2)cs1 | 88.1 | 80 | – | – |
| O=C(Nc1ccc(OCc2ccccc2)cc1)Nc1cc(-c2ccccc2)nn1-c1ccccc1 | 86.3 | 13.3 | – | – |
| Cc1ccc(-c2nc(NC(=O)Nc3ccc(OCc4ccccc4)cc3)sc2C)cc1Cl | 64.8 | 31.6 | – | – |
| Cc1sc(NC(=O)Nc2ccc(Cl)cc2)nc1-c1ccccc1 | 91.5 | 95.8 | – | – |
| COc1ccc(NC(=O)Nc2nc3c(ccc4ccccc43)s2)cc1 | 84.7 | 10.3 | – | – |
| Cc1ccc(-c2nc(NC(=O)Nc3ccc(Cl)cc3)sc2C)cc1 | 91.8 | 20.6 | – | – |
| COc1cc(NC(=O)Nc2nc(-c3nc4ccccc4s3)cs2)cc(OC)c1OC | 37.6 | 3.96 | 4.48 | Dose-dependent effect |
| COc1cc(NC(=O)Nc2nc3cc(C)c(C)cc3s2)cc(OC)c1OC | 94.8 | 96 | – | – |
| CCOc1ccc(NC(=O)Nc2nc(-c3ccccc3)c(C)s2)cc1 | 76.7 | 43.9 | – | – |
| CCc1cc(=O)[nH]c(-n2nc(-c3ccccc3)cc2NC(=O)Nc2ccc3c(c2)OCO3)n1 | 36.7 | 5.69 | < 4.00 | – |
| Cc1ccc(S(=O)(=O)NC(=O)Nc2nc(-c3ccc(C)c(Cl)c3)c(C)s2)cc1 | 79.3 | 0.68 | – | – |
| Cn1nc(-c2ccc(Cl)cc2)cc1NC(=O)Nc1ccc(OCc2ccccc2)cc1 | 73.4 | 1.99 | – | – |

Other lines, results leading:

| residual activity [1] [%] | residual activity [2] [%] | pIC50 [3] | inhibition [4] | SMILES |
| --- | --- | --- | --- | --- |
| 82.3 | 26.8 | – | – | CCc1cc(=O)[nH]c(-n2nc(-c3ccccc3)cc2NC(=O)Nc2cc(OC)cc(OC)c2)n1 |
| 105 | 93.3 | – | – | COc1ccc(NC(=O)Nc2nc(C)c(C(C)=O)s2)cc1 |
| 99.6 | 53.2 | – | – | COc1ccccc1NC(=O)Nc1cc(C(C)(C)C)nn1-c1ccccc1 |
| 99.3 | 83.5 | – | – | COc1cc(NC(=O)Nc2nc3c(OC)ccc(C)c3s2)cc(OC)c1OC |
| 96 | 96.4 | – | – | COc1cccc(NC(=O)Nc2cc(C)nn2-c2ccc(F)cc2)c1 |
| 65.6 | 11.8 | – | – | CCc1cc(=O)[nH]c(-n2nc(-c3ccccc3)cc2NC(=O)Nc2ccc(OC)cc2)n1 |
| 97.7 | 95.4 | – | – | COc1ccc(NC(=O)Nc2cc(C)nn2-c2ccc(F)cc2)cc1 |
| – | – | 4.87 | – | COc1ccc(NC(=O)Nc2ccc(Oc3ncnc4cc(Cl)ccc34)nc2)cc1OC1CCCC1 |
| 93.7 | 103 | – | – | COc1ccc(NC(=O)Nc2cc(C)nn2C2CCCC2)cc1 |
| 57.7 | 3.99 | 4.52 | – | Cc1cc(=O)[nH]c(-n2nc(-c3ccccc3)cc2NC(=O)Nc2ccc3c(c2)OCO3)n1 |
| 102 | 95.2 | – | – | COc1ccccc1NC(=O)Nc1cc(C(C)(C)C)nn1C |
| 100 | 101 | – | – | COc1cccc(NC(=O)Nc2cc(C)nn2C2CCCC2)c1 |
| 96.6 | 91.9 | – | – | COc1cccc(NC(=O)Nc2nc(C)c(C(C)=O)s2)c1 |
| 92.9 | 97.3 | – | – | Cn1nc(C(C)(C)C)cc1NC(=O)Nc1ccc(OCc2ccccc2)cc1 |
| 57.5 | 16 | 4.14 | – | COc1cc(NC(=O)Nc2cc(-c3ccccc3)nn2-c2nc(C)cc(=O)[nH]2)cc(OC)c1 |
| 94.6 | 76.6 | – | – | COc1ccc(NC(=O)Nc2nc3cc(C)c(C)cc3s2)cc1OC |
| 98.1 | 103 | – | – | CCc1c(C)nc(-n2nc(C)cc2NC(=O)Nc2cccc(OC)c2)[nH]c1=O |
| 92 | 68.7 | – | – | COc1ccc(NC(=O)Nc2nc(-c3ccc(OC)c(OC)c3)cs2)cc1 |
| 86 | 13.7 | – | – | COc1ccc(NC(=O)Nc2nc(-c3ccccc3)c(C(C)=O)s2)cc1OC |
| 53.8 | 0.7 | – | – | CCOC(=O)c1sc(NC(=O)Nc2ccc(Cl)c(Cl)c2)nc1C |
| 88.5 | 45.6 | – | – | Cc1ccc(-c2nc(NC(=O)Nc3cccc(Cl)c3)sc2C)cc1 |
| 39.8 | 13 | 4.03 | Dose-dependent effect | COc1ccc(NC(=O)Nc2nc(-c3ccc(C)c(Cl)c3)c(C)s2)cc1OC1CCCC1 |
